Read-outs that look alike come from different tables or passages of the source.
Experiments:
[1] = test system: LDH-2 (Ec. mundtii LDH-2); settings: read-out: LDH-2 D241N / pH 5.5, pH 5.5 (MES-NaOH), 3 mM FBP (activator)
[2] = test system: LDH-2 (Ec. mundtii LDH-2); settings: read-out: LDH-2 D241N / pH 5.5; pH 5.5 (MES-NaOH), 1.5 mM NADH, 20 mM pyruvate; allosteric activator

Compound `CC(=O)C(=O)O` [pyruvate] has a Km ([1]; 1.5 mM NADH) of 2300 ± 400 µM.

`NC(=O)C1=CN([C@@H]2O[C@H](COP(=O)(O)OP(=O)(O)OC[C@H]3O[C@@H](n4cnc5c(N)ncnc54)[C@H](O)[C@@H]3O)[C@@H](O)[C@H]2O)C=CC1` [NADH] gave a Km ([1]; 20 mM pyruvate) of 200 ± 40 µM.

For `O=P(O)(O)OC[C@H]1OC(O)(COP(=O)(O)O)[C@@H](O)[C@@H]1O` (stereo partly drawn) [FBP], the EC50 [2] was 76 ± 45 nM.
